Assay results reported in patent US10626144B2, “Peptide derivatives and uses thereof” (Nosopharm, priority 2014, dated 2020).
Square brackets hold non-standard residues; d marks the D form. Peptide text beside a SMILES is read from it. ξ: configuration not given here. Phe(3-CF3) = N[C@@H](Cc1cccc(C(F)(F)F)c1)C(=O)O; Phe(4-CF3) = N[C@@H](Cc1ccc(C(F)(F)F)cc1)C(=O)O; Phe(4-CONH2) = NC(=O)c1ccc(C[C@H](N)C(=O)O)cc1; Phe(2-CF3) = N[C@@H](Cc1ccccc1C(F)(F)F)C(=O)O; Phe(2,4-Me2) = Cc1ccc(C[C@H](N)C(=O)O)c(C)c1; Phe(2-CONH2) = NC(=O)c1ccccc1C[C@H](N)C(=O)O; Phe(3,4-F2) = N[C@@H](Cc1ccc(F)c(F)c1)C(=O)O; Phe(3,5-F2) = N[C@@H](Cc1cc(F)cc(F)c1)C(=O)O; Phe(3-CN) = N#Cc1cccc(C[C@H](N)C(=O)O)c1; Phe(3-OMe) = COc1cccc(C[C@H](N)C(=O)O)c1; Phe(4-Cl) = N[C@@H](Cc1ccc(Cl)cc1)C(=O)O; Oic(3aξ,7aξ) = O=C(O)[C@@H]1CC2CCCCC2N1; Phe(2-CN) = N#Cc1ccccc1C[C@H](N)C(=O)O; Phe(2-Cl) = N[C@@H](Cc1ccccc1Cl)C(=O)O; Phe(4-F) = N[C@@H](Cc1ccc(F)cc1)C(=O)O; Phe(4-Me) = Cc1ccc(C[C@H](N)C(=O)O)cc1; Dab(3S-OH) = NC[C@H](O)[C@H](N)C(=O)O; Phe(2-Me) = Cc1ccccc1C[C@H](N)C(=O)O; His(π-Me) = Cn1cncc1C[C@H](N)C(=O)O; ΔZArg = N=C(N)NCC/C=C(\N)C(=O)O; NMeK = CN[C@@H](CCCCN)C(=O)O; dOrn = NCCC[C@@H](N)C(=O)O

Tests used:
Test in all cases: MIC, broth microdilution (CLSI), reference strain
Details in all cases: CAMHB
[1] = test system: Escherichia coli ATCC 25922
[2] = test system: Staphylococcus aureus ATCC 13709
[3] = test system: Pseudomonas aeruginosa ATCC 27853
[4] = test system: Acinetobacter baumannii ATCC 19606

| Ec: MIC Escherichia coli ATCC 25922 [1] | Sa: MIC Staphylococcus aureus ATCC 13709 [2] | Pa: MIC Pseudomonas aeruginosa ATCC 27853 [3] | Ab: MIC Acinetobacter baumannii ATCC 19606 [4] | Compound |
| --- | --- | --- | --- | --- |
| + (≤32 μg/mL) | + (≤32 μg/mL) | − (>32 μg/mL) | − (>32 μg/mL) | C[C@H](NC(=O)[C@@H](NC(=O)[C@@H](N)CCCCN)[C@@H](O)CN)C(=O)NCC(=O)N[C@H](CCCN)C(=O)N1C2CCCCC2C[C@H]1C(=O)N[C@@H](Cc1cnc[nH]1)C(=O)N[C@@H](CCCCN)C(=O)N/C(=C\CCNC(=N)N)C(=O)O (stereo partly drawn) [24.75] (H-K[Dab(3S-OH)]AG[dOrn][Oic(3aξ,7aξ)]HK[ΔZArg]-OH) |
| + (≤32 μg/mL) | ++ (≤8 μg/mL) | − (>32 μg/mL) | − (>32 μg/mL) | Cc1ccc(C[C@H](NC(=O)[C@@H]2CCCN2C(=O)[C@@H](CCCN)NC(=O)CNC(=O)[C@H](C)NC(=O)[C@@H](NC(=O)[C@@H](N)CCCCN)[C@@H](O)CN)C(=O)N[C@@H](CCCCN)C(=O)N/C(=C\CCNC(=N)N)C(=O)O)c(C)c1 [24.78] (H-K[Dab(3S-OH)]AG[dOrn]P[Phe(2,4-Me2)]K[ΔZArg]-OH) |
| + (≤32 μg/mL) | ++ (≤8 μg/mL) | − (>32 μg/mL) | − (>32 μg/mL) | C[C@H](NC(=O)[C@@H](NC(=O)[C@@H](N)CCCCN)[C@@H](O)CN)C(=O)NCC(=O)N[C@H](CCCN)C(=O)N1CCC[C@H]1C(=O)N[C@@H](Cc1ccccc1C(F)(F)F)C(=O)N[C@@H](CCCCN)C(=O)N/C(=C\CCNC(=N)N)C(=O)O [24.79] (H-K[Dab(3S-OH)]AG[dOrn]P[Phe(2-CF3)]K[ΔZArg]-OH) |
| + (≤32 μg/mL) | ++ (≤8 μg/mL) | − (>32 μg/mL) | − (>32 μg/mL) | C[C@H](NC(=O)[C@@H](NC(=O)[C@@H](N)CCCCN)[C@@H](O)CN)C(=O)NCC(=O)N[C@H](CCCN)C(=O)N1CCC[C@H]1C(=O)N[C@@H](Cc1ccccc1Cl)C(=O)N[C@@H](CCCCN)C(=O)N/C(=C\CCNC(=N)N)C(=O)O [24.80] (H-K[Dab(3S-OH)]AG[dOrn]P[Phe(2-Cl)]K[ΔZArg]-OH) |
| − (>32 μg/mL) | − (>32 μg/mL) | − (>32 μg/mL) | − (>32 μg/mL) | C[C@H](NC(=O)[C@@H](NC(=O)[C@@H](N)CCCCN)[C@@H](O)CN)C(=O)NCC(=O)N[C@H](CCCN)C(=O)N1CCC[C@H]1C(=O)N[C@@H](Cc1ccccc1C#N)C(=O)N[C@@H](CCCCN)C(=O)N/C(=C\CCNC(=N)N)C(=O)O [24.81] (H-K[Dab(3S-OH)]AG[dOrn]P[Phe(2-CN)]K[ΔZArg]-OH) |
| − (>32 μg/mL) | + (≤32 μg/mL) | − (>32 μg/mL) | − (>32 μg/mL) | C[C@H](NC(=O)[C@@H](NC(=O)[C@@H](N)CCCCN)[C@@H](O)CN)C(=O)NCC(=O)N[C@H](CCCN)C(=O)N1CCC[C@H]1C(=O)N[C@@H](Cc1ccccc1C(N)=O)C(=O)N[C@@H](CCCCN)C(=O)N/C(=C\CCNC(=N)N)C(=O)O [24.82] (H-K[Dab(3S-OH)]AG[dOrn]P[Phe(2-CONH2)]K[ΔZArg]-OH) |
| + (≤32 μg/mL) | ++ (≤8 μg/mL) | − (>32 μg/mL) | − (>32 μg/mL) | Cc1ccccc1C[C@H](NC(=O)[C@@H]1CCCN1C(=O)[C@@H](CCCN)NC(=O)CNC(=O)[C@H](C)NC(=O)[C@@H](NC(=O)[C@@H](N)CCCCN)[C@@H](O)CN)C(=O)N[C@@H](CCCCN)C(=O)N/C(=C\CCNC(=N)N)C(=O)O [24.83] (H-K[Dab(3S-OH)]AG[dOrn]P[Phe(2-Me)]K[ΔZArg]-OH) |
| ++ (≤8 μg/mL) | ++ (≤8 μg/mL) | − (>32 μg/mL) | − (>32 μg/mL) | C[C@H](NC(=O)[C@@H](NC(=O)[C@@H](N)CCCCN)[C@@H](O)CN)C(=O)NCC(=O)N[C@H](CCCN)C(=O)N1CCC[C@H]1C(=O)N[C@@H](Cc1ccc(F)c(F)c1)C(=O)N[C@@H](CCCCN)C(=O)N/C(=C\CCNC(=N)N)C(=O)O [24.84] (H-K[Dab(3S-OH)]AG[dOrn]P[Phe(3,4-F2)]K[ΔZArg]-OH) |
| + (≤32 μg/mL) | ++ (≤8 μg/mL) | − (>32 μg/mL) | − (>32 μg/mL) | C[C@H](NC(=O)[C@@H](NC(=O)[C@@H](N)CCCCN)[C@@H](O)CN)C(=O)NCC(=O)N[C@H](CCCN)C(=O)N1CCC[C@H]1C(=O)N[C@@H](Cc1cc(F)cc(F)c1)C(=O)N[C@@H](CCCCN)C(=O)N/C(=C\CCNC(=N)N)C(=O)O [24.86] (H-K[Dab(3S-OH)]AG[dOrn]P[Phe(3,5-F2)]K[ΔZArg]-OH) |
| + (≤32 μg/mL) | ++ (≤8 μg/mL) | − (>32 μg/mL) | − (>32 μg/mL) | C[C@H](NC(=O)[C@@H](NC(=O)[C@@H](N)CCCCN)[C@@H](O)CN)C(=O)NCC(=O)N[C@H](CCCN)C(=O)N1CCC[C@H]1C(=O)N[C@@H](Cc1cccc(C(F)(F)F)c1)C(=O)N[C@@H](CCCCN)C(=O)N/C(=C\CCNC(=N)N)C(=O)O [24.87] (H-K[Dab(3S-OH)]AG[dOrn]P[Phe(3-CF3)]K[ΔZArg]-OH) |
| + (≤32 μg/mL) | ++ (≤8 μg/mL) | − (>32 μg/mL) | − (>32 μg/mL) | C[C@H](NC(=O)[C@@H](NC(=O)[C@@H](N)CCCCN)[C@@H](O)CN)C(=O)NCC(=O)N[C@H](CCCN)C(=O)N1CCC[C@H]1C(=O)N[C@@H](Cc1cccc(C#N)c1)C(=O)N[C@@H](CCCCN)C(=O)N/C(=C\CCNC(=N)N)C(=O)O [24.89] (H-K[Dab(3S-OH)]AG[dOrn]P[Phe(3-CN)]K[ΔZArg]-OH) |
| + (≤32 μg/mL) | + (≤32 μg/mL) | − (>32 μg/mL) | − (>32 μg/mL) | C[C@H](NC(=O)[C@@H](NC(=O)[C@@H](N)CCCCN)[C@@H](O)CN)C(=O)NCC(=O)N[C@H](CCCN)C(=O)N1CCC[C@H]1C(=O)N[C@@H](Cc1cncn1C)C(=O)N[C@@H](CCCCN)C(=O)N/C(=C\CCNC(=N)N)C(=O)O [24.91] (H-K[Dab(3S-OH)]AG[dOrn]P[His(π-Me)]K[ΔZArg]-OH) |
| + (≤32 μg/mL) | ++ (≤8 μg/mL) | − (>32 μg/mL) | − (>32 μg/mL) | COc1cccc(C[C@H](NC(=O)[C@@H]2CCCN2C(=O)[C@@H](CCCN)NC(=O)CNC(=O)[C@H](C)NC(=O)[C@@H](NC(=O)[C@@H](N)CCCCN)[C@@H](O)CN)C(=O)N[C@@H](CCCCN)C(=O)N/C(=C\CCNC(=N)N)C(=O)O)c1 [24.92] (H-K[Dab(3S-OH)]AG[dOrn]P[Phe(3-OMe)]K[ΔZArg]-OH) |
| ++ (≤8 μg/mL) | ++ (≤8 μg/mL) | − (>32 μg/mL) | − (>32 μg/mL) | C[C@H](NC(=O)[C@@H](NC(=O)[C@@H](N)CCCCN)[C@@H](O)CN)C(=O)NCC(=O)N[C@H](CCCN)C(=O)N1CCC[C@H]1C(=O)N[C@@H](Cc1ccc(C(F)(F)F)cc1)C(=O)N[C@@H](CCCCN)C(=O)N/C(=C\CCNC(=N)N)C(=O)O [24.94] (H-K[Dab(3S-OH)]AG[dOrn]P[Phe(4-CF3)]K[ΔZArg]-OH) |
| + (≤32 μg/mL) | ++ (≤8 μg/mL) | − (>32 μg/mL) | − (>32 μg/mL) | CN[C@@H](CCCCN)C(=O)N[C@H](C(=O)N[C@@H](C)C(=O)NCC(=O)N[C@H](CCCN)C(=O)N1CCC[C@H]1C(=O)N[C@@H](Cc1ccc(Cl)cc1)C(=O)N[C@@H](CCCCN)C(=O)N/C(=C\CCNC(=N)N)C(=O)O)[C@@H](O)CN [24.98] (H-[NMeK][Dab(3S-OH)]AG[dOrn]P[Phe(4-Cl)]K[ΔZArg]-OH) |
| + (≤32 μg/mL) | ++ (≤8 μg/mL) | − (>32 μg/mL) | − (>32 μg/mL) | C[C@H](NC(=O)[C@@H](NC(=O)[C@@H](N)CCCCN)[C@@H](O)CN)C(=O)NCC(=O)N[C@H](CCCN)C(=O)N1CCC[C@H]1C(=O)N[C@@H](Cc1ccc(C(N)=O)cc1)C(=O)N[C@@H](CCCCN)C(=O)N/C(=C\CCNC(=N)N)C(=O)O [24.101] (H-K[Dab(3S-OH)]AG[dOrn]P[Phe(4-CONH2)]K[ΔZArg]-OH) |
| + (≤32 μg/mL) | ++ (≤8 μg/mL) | − (>32 μg/mL) | − (>32 μg/mL) | C[C@H](NC(=O)[C@@H](NC(=O)[C@@H](N)CCCCN)[C@@H](O)CN)C(=O)NCC(=O)N[C@H](CCCN)C(=O)N1CCC[C@H]1C(=O)N[C@@H](Cc1ccc(F)cc1)C(=O)N[C@@H](CCCCN)C(=O)N/C(=C\CCNC(=N)N)C(=O)O [24.102] (H-K[Dab(3S-OH)]AG[dOrn]P[Phe(4-F)]K[ΔZArg]-OH) |
| + (≤32 μg/mL) | ++ (≤8 μg/mL) | − (>32 μg/mL) | − (>32 μg/mL) | Cc1ccc(C[C@H](NC(=O)[C@@H]2CCCN2C(=O)[C@@H](CCCN)NC(=O)CNC(=O)[C@H](C)NC(=O)[C@@H](NC(=O)[C@@H](N)CCCCN)[C@@H](O)CN)C(=O)N[C@@H](CCCCN)C(=O)N/C(=C\CCNC(=N)N)C(=O)O)cc1 [24.104] (H-K[Dab(3S-OH)]AG[dOrn]P[Phe(4-Me)]K[ΔZArg]-OH) |
